Patent US10597398B2, “Suppression and regeneration promoting effect of low molecular weight compound on cancer and fibrosis” (NATIONAL UNIVERSITY CORPORATION TOTTORI UNIVERSITY, priority 2015, dated 2020)

Legend:
[1] = system: cancer stem cells (CD44) in HuH-7 cells; assay: Inhibitory effect on cancer stem cells (FCM analysis of CD44), Example 6.4; format: cell-based, human; conditions: CD44, day 2, IC-2 50 μM, 5-FU 0.5 μM, compared with control 1% DMSO
Method: CD44, a cancer stem cell marker, was used as an indicator to examine an inhibitory effect of IC-2 on cancer stem cells. First, 70 to 90% confluent HuH-7 cells were harvested and seeded at 1.5×10^6 cells per 10-cm cell culture dish. After 15 h, the cells were treated with hexachlorophene (15 μM), ICG-001 (15 μM), PKF118-310 (5 μM), IC-2 (50 μM), or 5-FU (0.5 μM), and the mixture was cultured at 37° C. Each control sample used was 1% DMSO, a solvent for each compound or the anti-cancer drug. Day 2 after the drug treatment, the cells were harvested from each culture dish. The cells were centrifuged at 1000 rpm and at 4° C. for 5 min to remove a supernatant and were then washed twice with 1 mL of 0.5% FBS/2 mM EDTA/PBS. Next, the cells were suspended in 500 μL of 5% BSA/0.5% FBS/2 mM EDTA/PBS for blocking at 4° C. for 15 min.
Then, 5 μL of a mouse anti-human CD44 monoclonal antibody (156-3C11, Cell Signaling Technology Inc., Danvers, Mass.) was added to 500 μL of the cell suspension. The mixture was resuspended and subjected to a primary antibody reaction in a dark room at 4° C. for 10 min. After that, the cells were washed 3 times with 1 mL of PBS. Subsequently, 1.0 μg of Alexa Fluor 488-labeled IgG (H+L) (Life Technologies Corp., Carlsbad, Calif.) was added and the mixture was suspended. Then, a secondary antibody reaction was carried out in a dark room at 4° C. for 10 min. […]

[2] = Liver cancer model mouse, body weight; format: in vivo, mice; conditions: 30 mg/kg 5-FU or 50 mg/kg IC-2 intraperitoneally every three days
Method: CD44-positive HuH-7 cells were subcutaneously transplanted in mice. Next, the engrafted mice were divided into 3 groups (DMSO group: 5 mice; 5-FU group: 4 mice; and IC-2 group: 4 mice). Then, DMSO was added to prepare 30 mg/kg of 5-FU and 50 mg/kg of IC-2 such that each liquid volume was 100 μL; and 100% DMSO, a solvent for each drug, was used as a control sample. Subsequently, each drug was dosed intraperitoneally every three days. The body weight of each mouse and the long and short diameters of a tumor were measured every three days. The tumor volume was calculated by using the following equation: Tumor volume=Long diameter×(Short diameter)^2×0.5. The volume at Day 0 was used to normalize each tumor volume, and then a graph was created. To fully evaluate a 5-FU effect, the 5-FU dose was set to an amount 2 times the regular amount 15 mg/kg used in research articles. The concentration of IC-2 corresponding to a concentration at which Wnt/β-catenin signaling was inhibited in vitro was calculated. Then, the concentration was doubled to set an IC-2 dose.

[3] = system: CD44-expressing HSC2 cells; assay: CD44-expressing cells in HSC2 cells (cell sorter analysis); format: cell-based, human; conditions: 48 h, 25 μM IC-2 or 0.5 μM 5-FU, 83.9% without treatment
Method: In addition, HSC2 cells were seeded at 5×10^5 cells/10-cm cell culture dish (TPP). After 24 h, the cells were treated with 0.5 μM of 5-FU or 25 μM of IC-2. Also prepared were cells without low-molecular-weight compound treatment (0 μM). After additional 48 h, the respective cells were harvested. As a primary antibody, used was a mouse anti-human CD44 antibody (Abcam Ltd., Cambridge, UK). Then, Alexa Fluor 488-labeled goat anti-mouse IgG (H+L) (Life Technologies Corp., Carlsbad, Calif.) was used. After that, a cell sorter BD bioscience FACS Aria (Becton, Dickinson and Company, Franklin Lakes, N.J.) was used for analysis.

CD44high DLD-1 cells = assay: CD44high cells in DLD-1 cells (FCM analysis); format: cell-based, human; conditions: 48 h, 50 μM IC-2, 0.5 or 5 μM 5-FU, compared with control
Method: In addition, DLD-1 cells were seeded at 1×10^6 cells/10-cm cell culture dish. After 24 h, the cells were treated with 0.5 or 5 μM of 5-FU or 50 μM of IC-2. At additional 48 h, the cells were harvested. As a primary antibody, used was a mouse anti-human CD44 antibody (Abcam Ltd., Cambridge, UK). Then, Alexa Fluor 488-labeled goat anti-mouse IgG (H+L) (Life Technologies Corp., Carlsbad, Calif.) was used. After that, a MoFlo XDP (Beckman Coulter Inc., Fullerton, Calif.) was used for analysis.

Wnt/β-catenin signal = conditions: as described in Patent Literature 1; cited from earlier work
cancer stem cells = conditions: Fbxw7-deficient model mice, Takeishi et al. 2013; cited from earlier work

With O=c1[nH]cc(F)c(=O)[nH]1 [Compound 5-FU, 5-fluorouracil, reference compound] the “number of cancer stem cells” value [1] was “rather increased the number of cancer stem cells”, the body weight [2] was “no change in the body weight” and the “percentage of CD44-expressing cells” value [3] was 83.3%. For the same molecule, the “percentage of CD44high cells” value (CD44high DLD-1 cells) was “rather increased the percentage”.

In the case of COc1c(Cl)cc(Cl)c(Cl)c1Cc1c(Cl)c(Cl)cc(Cl)c1OC [HC-1, hexachlorophene methyl ether bis(2,3,5-trichloro-6-methoxyphenyl)methane], the “Wnt/β-catenin signal in a mesenchymal stem cell and differentiation into hepatocytes” value (Wnt/β-catenin signal) is given as “inhibit a Wnt/β-catenin signal in a mesenchymal stem cell, thereby inducing differentiation of the mesenchymal stem cell into hepatocytes”.

For Cc1ccc(NC(=O)c2ccc(CN3CCN(C)CC3)cc2)cc1Nc1nccc(-c2cccnc2)n1 [imatinib], the cancer stem cells (cancer stem cells) is given as “cancer stem cells were killed”.
